The source of these data is patent US4898858A, “Cephalosporin derivatives and antibiotics containing the same” (Meiji Seika Kaisha Ltd., priority 1985, dated 1990).

Broadly, the MIC is the lowest concentration that inhibits growth of the organism.

Holding throughout (assay): minimum growth-inhibitory concentration (MIC) in vitro
For assay [1], the system named is Enterobacter Cloacae G-0008. In kind it is cell-based.
Assay [2] has as its system Pseudomonas aeruginosa E-2. It is filed as cell-based. Conditions: E2.
The next assay concerns Proteus rettgeri J-0026. In kind it is cell-based. Conditions: Providencia rettgeri, J0026.
Another assay concerns Proteus rettgeri GN-624. In kind it is cell-based. Conditions: Providencia rettgeri, GN624.
Assay [3] deals with Staphylococcus aureus 209P JC-1. In kind it is cell-based.
For another assay, the system named is Escherichia coli No.29. In kind it is cell-based.
The test system of assay [4] is Salmonella enteritidis No.11. It is filed as cell-based. Conditions: Salmonella enterica.
Assay [5] relates to Enterobacter Cloacae G-0005. It is filed as cell-based.
The subject of assay [6] is Streptocuccus faecalis W-75. It is filed as cell-based.
The test system of a further assay is Proteus vulgais GN-76. In kind it is cell-based.
The subject of assay [7] is Salmonella typhimurium LT-2. In kind it is cell-based. Conditions: Salmonella enterica.
A further assay relates to Proteus morganii 1510. It is filed as cell-based. Conditions: Morganella morganii.
The test system of a further assay is Escherichia coli ML1410. It is filed as cell-based.
The test system of assay [8] is Pseudomonas aeruginosa GN-10362. It is filed as cell-based. Conditions: GN10362.
Assay [9] has as its system Proteus vulgais GN-76/C-1. Conditions: Proteus vulgaris, GN76, read-out: MIC-value.
Assay [10] deals with Klebsiella pneumoniae GN-69. In kind it is cell-based. Conditions: GN69; Klebsiella pneumoniae GN-69; in vitro; read-out: MIC-value.
The test system of assay [11] is Staphylococcus aureus 606. It is filed as cell-based.
In assay [12] the test system is Staphylococcus aureus 606 E-25. It is filed as cell-based. Conditions: 606E25.
The subject of assay [13] is Klebsiella pneumoniae GN-118. It is filed as cell-based. Conditions: GN118.
Assay [14] deals with Serratia marcescens GN-629. In kind it is cell-based. Conditions: GN629.
For assay [15], the system named is Serratia marcescens GN-10857. It is filed as cell-based. Conditions: GN10857.
In assay [16] the test system is Escherichia coli NIHJ JC-2. In kind it is cell-based. Conditions: NIHJJC2; Escherichia coli NIHJ JC-2; in vitro; read-out: MIC-value.
Assay [17] has as its system Pseudomonas aeruginosa MB-3833. In kind it is cell-based. Conditions: MB3833.

In brackets after ≈: the same amount, converted by molar mass.

Consider `CC(O/N=C(\C(=O)N[C@@H]1C(=O)N2C(C(=O)[O-])=C(CSc3cc[n+](CCF)cc3)CS[C@H]12)c1csc(N)n1)C(=O)O` (stereo partly drawn) [Example 1, (6R,7R)-7-{(Z)-2-(2-Aminothiazol-4-yl)-2-(1-carboxyethoxyimino)acetamido}-3-[{1-(2-fluoroethyl)pyridinium}-4-ylthiomethyl]-ceph-3-em-4-carboxylate], for which the MIC is 0.1 µg/mL (≈ 0.164 µM) in [1]; 1.56 µg/mL (≈ 2.55 µM) in assay [2]; 0.1 µg/mL (≈ 0.164 µM) against Proteus rettgeri J-0026; 0.05 µg/mL (≈ 0.0819 µM) against Proteus rettgeri GN-624; 3.13 µg/mL (≈ 5.13 µM) in assay [3]; 0.1 µg/mL (≈ 0.164 µM) with Escherichia coli No.29. Besides, the MIC in assay [4] was < 0.025 µg/mL; in [5], 0.05 µg/mL (≈ 0.0819 µM); in assay [6], 3.13 µg/mL (≈ 5.13 µM); in the assay on Proteus vulgais GN-76, 0.05 µg/mL (≈ 0.0819 µM); in [7] it was < 0.025 µg/mL; in the assay with Proteus morganii 1510, 1.56 µg/mL (≈ 2.55 µM). For the same molecule, the MIC was 0.1 µg/mL (≈ 0.164 µM) in the assay on Escherichia coli ML1410; 1.56 µg/mL (≈ 2.55 µM) in [8]; 0.1 µg/mL (≈ 0.164 µM) in assay [9]; < 0.025 µg/mL in assay [10]; 3.13 µg/mL (≈ 5.13 µM) in [11]; 3.13 µg/mL (≈ 5.13 µM) in assay [12]. Moreover, the MIC in assay [13] is < 0.025 µg/mL; in assay [14], 0.1 µg/mL (≈ 0.164 µM); in [15], 0.78 µg/mL (≈ 1.28 µM); in assay [16], 0.1 µg/mL (≈ 0.164 µM); in assay [17], 1.56 µg/mL (≈ 2.55 µM).
With `C[C@@H](O/N=C(\C(=O)N[C@@H]1C(=O)N2C(C(=O)[O-])=C(CSc3cc[n+](CCF)cc3)CS[C@H]12)c1csc(N)n1)C(=O)O` [Example 2, (6R,7R)-7-[(Z)-2-(2-Aminothiazol-4-yl)-2-{(1R)-carboxyethoxyimino}acetamido]-3-[{1-(2-fluoroethyl)pyridinium}-4-ylthiomethyl]-ceph-3-em-4-carboxylate], the MIC in assay [1] came out at 0.2 µg/mL (≈ 0.328 µM); in [2] it was 3.13 µg/mL (≈ 5.13 µM); in the assay with Proteus rettgeri J-0026, 0.2 µg/mL (≈ 0.328 µM); in the assay with Proteus rettgeri GN-624 it was 0.1 µg/mL (≈ 0.164 µM); in assay [3], 3.13 µg/mL (≈ 5.13 µM); in the assay on Escherichia coli No.29, 0.1 µg/mL (≈ 0.164 µM). Besides, the MIC in assay [4] is < 0.025 µg/mL; in [5] it was 0.2 µg/mL (≈ 0.328 µM); in assay [6], 3.13 µg/mL (≈ 5.13 µM); with Proteus vulgais GN-76, 0.1 µg/mL (≈ 0.164 µM); in assay [7], 0.05 µg/mL (≈ 0.0819 µM); against Proteus morganii 1510, 1.56 µg/mL (≈ 2.55 µM). Also, the MIC was found to be 0.2 µg/mL (≈ 0.328 µM) against Escherichia coli ML1410; 3.13 µg/mL (≈ 5.13 µM) in [8]; 0.1 µg/mL (≈ 0.164 µM) in [9]; 0.05 µg/mL (≈ 0.0819 µM) in [10]; 6.25 µg/mL (≈ 10.2 µM) in [11]; 6.25 µg/mL (≈ 10.2 µM) in assay [12]. The MIC was found to be 0.05 µg/mL (≈ 0.0819 µM) in assay [13]; 0.39 µg/mL (≈ 0.639 µM) in assay [14]; 3.13 µg/mL (≈ 5.13 µM) in assay [15]; 0.1 µg/mL (≈ 0.164 µM) in [16]; 3.13 µg/mL (≈ 5.13 µM) in assay [17].
Turning to `C[C@H](O/N=C(\C(=O)N[C@@H]1C(=O)N2C(C(=O)[O-])=C(CSc3cc[n+](CCF)cc3)CS[C@H]12)c1csc(N)n1)C(=O)O` [Example 3, (6R,7R)-7-[(Z)-2-(2-Aminothiazol-4-yl)-2-{(1S)-carboxyethoxyimino}acetamido]-3-[{1-(2-fluoroethyl)pyridinium}-4-ylthiomethyl]-ceph-3-em-4-carboxylate], the MIC amounted to 0.1 µg/mL (≈ 0.164 µM) in [1]; 1.56 µg/mL (≈ 2.55 µM) in assay [2]; 0.1 µg/mL (≈ 0.164 µM) with Proteus rettgeri J-0026; 0.05 µg/mL (≈ 0.0819 µM) in the assay with Proteus rettgeri GN-624; 1.56 µg/mL (≈ 2.55 µM) in assay [3]; 0.1 µg/mL (≈ 0.164 µM) in the assay on Escherichia coli No.29. The MIC is < 0.025 µg/mL in [4]; 0.05 µg/mL (≈ 0.0819 µM) in [5]; 1.56 µg/mL (≈ 2.55 µM) in assay [6]; < 0.025 µg/mL with Proteus vulgais GN-76; < 0.025 µg/mL in [7]; 1.56 µg/mL (≈ 2.55 µM) in the assay on Proteus morganii 1510. The MIC with Escherichia coli ML1410 worked out at 0.1 µg/mL (≈ 0.164 µM); in [8], 1.56 µg/mL (≈ 2.55 µM); in [9], 0.05 µg/mL (≈ 0.0819 µM); in assay [10], 0.05 µg/mL (≈ 0.0819 µM); in assay [11], 3.13 µg/mL (≈ 5.13 µM); in assay [12], 3.13 µg/mL (≈ 5.13 µM). Moreover, the MIC was < 0.025 µg/mL in assay [13]; 0.2 µg/mL (≈ 0.328 µM) in assay [14]; 0.78 µg/mL (≈ 1.28 µM) in [15]; 0.1 µg/mL (≈ 0.164 µM) in assay [16]; 1.56 µg/mL (≈ 2.55 µM) in assay [17].
Consider `CCC(O/N=C(\C(=O)N[C@@H]1C(=O)N2C(C(=O)[O-])=C(CSc3cc[n+](CCF)cc3)CS[C@H]12)c1csc(N)n1)C(=O)O` (stereo partly drawn) [Example 4], for which the minimum inhibitory concentration (MIC) in [1] is 0.39 µg/mL (≈ 0.624 µM); in assay [2], 3.13 µg/mL (≈ 5.01 µM); against Proteus rettgeri J-0026, 0.78 µg/mL (≈ 1.25 µM); in the assay with Proteus rettgeri GN-624, 0.05 µg/mL (≈ 0.08 µM); in assay [3], 6.25 µg/mL (≈ 10 µM); with Escherichia coli No.29 it was 0.39 µg/mL (≈ 0.624 µM). Besides, the MIC was < 0.025 µg/mL in assay [4]; 0.39 µg/mL (≈ 0.624 µM) in assay [5]; 6.25 µg/mL (≈ 10 µM) in assay [6]; 0.05 µg/mL (≈ 0.08 µM) against Proteus vulgais GN-76; 0.2 µg/mL (≈ 0.32 µM) in assay [7]; 3.13 µg/mL (≈ 5.01 µM) against Proteus morganii 1510. Further, the minimal inhibitory concentration (MIC) with Escherichia coli ML1410 came to 0.39 µg/mL (≈ 0.624 µM); in assay [8], 3.13 µg/mL (≈ 5.01 µM); in assay [9] it was 0.2 µg/mL (≈ 0.32 µM); in assay [10], 0.1 µg/mL (≈ 0.16 µM); in assay [11] it was 6.25 µg/mL (≈ 10 µM); in [12] it was 6.25 µg/mL (≈ 10 µM). Also, the MIC in [13] turned out to be 0.1 µg/mL (≈ 0.16 µM); in [14], 0.78 µg/mL (≈ 1.25 µM); in assay [15] it was 3.13 µg/mL (≈ 5.01 µM); in assay [16] it was 0.39 µg/mL (≈ 0.624 µM); in assay [17], 3.13 µg/mL (≈ 5.01 µM).
Take `Nc1nc(/C(=N/OC(C(=O)O)C2CCCCC2)C(=O)N[C@@H]2C(=O)N3C(C(=O)[O-])=C(CSc4cc[n+](CCF)cc4)CS[C@H]23)cs1` (stereo partly drawn) [Example 5]: the MIC is 3.13 µg/mL (≈ 4.61 µM) in assay [1]; 12.5 µg/mL (≈ 18.4 µM) in assay [2]; 3.13 µg/mL (≈ 4.61 µM) against Proteus rettgeri J-0026; 0.39 µg/mL (≈ 0.575 µM) in the assay with Proteus rettgeri GN-624; 1.56 µg/mL (≈ 2.3 µM) in assay [3]; 3.13 µg/mL (≈ 4.61 µM) against Escherichia coli No.29. Besides, the MIC in assay [4] turned out to be 0.2 µg/mL (≈ 0.295 µM); in [5] it was 3.13 µg/mL (≈ 4.61 µM); in assay [6], 3.13 µg/mL (≈ 4.61 µM); in the assay with Proteus vulgais GN-76 it was 0.78 µg/mL (≈ 1.15 µM); in assay [7], 3.13 µg/mL (≈ 4.61 µM); in the assay on Proteus morganii 1510, 6.25 µg/mL (≈ 9.21 µM). Besides, the MIC against Escherichia coli ML1410 amounted to 3.13 µg/mL (≈ 4.61 µM); in assay [8], 12.5 µg/mL (≈ 18.4 µM); in assay [9], 0.78 µg/mL (≈ 1.15 µM); in [10] it was 1.56 µg/mL (≈ 2.3 µM); in [11], 3.13 µg/mL (≈ 4.61 µM); in [12], 3.13 µg/mL (≈ 4.61 µM). Besides, the MIC in assay [13] came out at 1.56 µg/mL (≈ 2.3 µM); in assay [14], 6.25 µg/mL (≈ 9.21 µM); in assay [15], 6.25 µg/mL (≈ 9.21 µM); in assay [16] it was 3.13 µg/mL (≈ 4.61 µM); in assay [17] it was 12.5 µg/mL (≈ 18.4 µM).
With `CC[n+]1ccc(SCC2=C(C(=O)[O-])N3C(=O)[C@@H](NC(=O)/C(=N\O[C@@H](C)C(=O)O)c4csc(N)n4)[C@H]3SC2)cc1` [Example 8], the MIC in assay [1] was 0.05 µg/mL (≈ 0.0844 µM); in [2] it was 0.78 µg/mL (≈ 1.32 µM); against Proteus rettgeri J-0026, 0.05 µg/mL (≈ 0.0844 µM); against Proteus rettgeri GN-624, 0.05 µg/mL (≈ 0.0844 µM); in assay [4], < 0.025 µg/mL; in assay [5] it was 0.05 µg/mL (≈ 0.0844 µM). Besides, the MIC in [6] is 0.78 µg/mL (≈ 1.32 µM); in the assay with Proteus vulgais GN-76, 0.025 µg/mL (≈ 0.0422 µM); in assay [7], < 0.025 µg/mL; in the assay on Proteus morganii 1510, 0.78 µg/mL (≈ 1.32 µM); in the assay on Escherichia coli ML1410 it was 0.1 µg/mL (≈ 0.169 µM); in [9] it was 0.05 µg/mL (≈ 0.0844 µM). Also, the MIC in assay [10] was < 0.025 µg/mL; in [11], 1.56 µg/mL (≈ 2.63 µM); in assay [12], 3.13 µg/mL (≈ 5.28 µM); in assay [13], < 0.025 µg/mL; in assay [14], 0.1 µg/mL (≈ 0.169 µM); in assay [15], 0.39 µg/mL (≈ 0.658 µM). For the same molecule, the figures for the MIC in assay [16] and in [17] were 0.1 µg/mL (≈ 0.169 µM) and 0.78 µg/mL (≈ 1.32 µM), respectively.
